Measurements taken from ChEMBL document CHEMBL1127733, “Aspartyl alpha-((1-phenyl-3-(trifluoromethyl)-pyrazol-5-yl)oxy)methyl ketones as interleukin-1 beta converting enzyme inhibitors. Significance of the P1 and P3 amido nitrogens for enzyme-peptide inhibitor binding” (J Med Chem, 1994).

The compounds below were run against T1, Caspase-1 (Homo sapiens) (UniProt P29466) (assay: Inhibition constant against interleukin-1-beta converting enzyme).
T1 sequence (whole entry): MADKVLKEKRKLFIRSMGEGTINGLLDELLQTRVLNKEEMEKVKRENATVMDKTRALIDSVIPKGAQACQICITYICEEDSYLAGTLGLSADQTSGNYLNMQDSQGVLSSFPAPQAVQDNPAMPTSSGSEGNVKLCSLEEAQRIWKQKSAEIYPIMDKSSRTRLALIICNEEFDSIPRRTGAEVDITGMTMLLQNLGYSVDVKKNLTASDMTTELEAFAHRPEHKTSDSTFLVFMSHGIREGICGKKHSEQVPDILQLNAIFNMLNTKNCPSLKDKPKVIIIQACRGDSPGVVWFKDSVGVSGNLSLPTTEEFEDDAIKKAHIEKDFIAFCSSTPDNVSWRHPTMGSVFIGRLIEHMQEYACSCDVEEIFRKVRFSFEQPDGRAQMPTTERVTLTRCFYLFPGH

SMILES	K obs / 1 [M⁻¹ s⁻¹]
CC(C)[C@H](NC(=O)OCc1ccccc1)C(=O)N[C@@H](CC(=O)O)C(=O)COc1cc(C(F)(F)F)nn1-c1ccccc1	20000
CC(C)[C@@H](C(=O)N[C@@H](C)C(=O)N[C@@H](CC(=O)O)C(=O)COc1cc(C(F)(F)F)nn1-c1ccccc1)N(C)C(=O)OCc1ccccc1	8600
CC(C)[C@H](NC(=O)OCc1ccccc1)C(=O)N(C)[C@@H](C)C(=O)N[C@@H](CC(=O)O)C(=O)COc1cc(C(F)(F)F)nn1-c1ccccc1	233000

Other lines, results leading:

K obs / 1 [M⁻¹ s⁻¹]	SMILES
< 300	CC(C)[C@H](NC(=O)OCc1ccccc1)C(=O)N[C@@H](C)C(=O)N(C)[C@@H](CC(=O)O)C(=O)COc1cc(C(F)(F)F)nn1-c1ccccc1
116000	CC(C)[C@H](NC(=O)OCc1ccccc1)C(=O)N1CCC[C@H]1C(=O)N[C@@H](CC(=O)O)C(=O)COc1cc(C(F)(F)F)nn1-c1ccccc1
46200	CC(C)[C@H](NC(=O)OCc1ccccc1)C(=O)N1CC[C@H]1C(=O)N[C@@H](CC(=O)O)C(=O)COc1cc(C(F)(F)F)nn1-c1ccccc1
11000	O=C(O)C[C@H](NC(=O)OCc1ccccc1)C(=O)COc1cc(C(F)(F)F)nn1-c1ccccc1
